Measured values as given in patent US8445509B2, “Fused heterocyclic derivatives and use thereof” (Takeda Pharmaceutical Company Limited, priority 2008, dated 2013).

Tests used:
[1] = target: T1, Tie2 intracellular domain protein (Homo sapiens, UniProt Q02763); assay: TIE2 kinase inhibitory activity (AlphaScreen); format: biochemical
T1 construct: 50 ng/mL of Tie2 intracellular domain protein (Millipore); purchased Millipore

[2] = system: Human umbilical vein-derived vascular endothelial cells (HUVEC); assay: Vascular endothelial cell proliferation inhibitory test (VEGF-stimulated HUVEC); format: cell-based; conditions: 120 h, 5 days of culture with VEGF
Outline: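 HUVEC (3000 cells/well) in medium with 3% FBS, cultured overnight, then given test substance plus VEGF (120 ng/mL in the added medium). After 5 days at 37 °C, Cell Counting Kit-8 was applied for 2-3 h and A450 read. IC50 relative to no-compound wells, by logistic nonlinear least-squares fit.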

[3] = system: Human blood cell cancer cell line MV-4-11; assay: Human blood cell cancer cell line MV-4-11 growth inhibitory test; format: cell-based; conditions: MV4-11, 72 h, culture for 3 days; for inhibition at 1 µM: 1 μM test substance, read-out: inhibitory rate (%) at 1 μM
[4] = target: T2, FLT3 intracellular domain protein (Homo sapiens, UniProt P36888); assay: Fms Like Tyrosine Kinase 3 (FLT3) kinase inhibitory activity (AlphaScreen); format: biochemical
T2 construct: 7.5 ng/ml of FLT3 intracellular domain protein (Millipore); purchased Millipore
T2 sequence (P36888 564-993 limits assumed): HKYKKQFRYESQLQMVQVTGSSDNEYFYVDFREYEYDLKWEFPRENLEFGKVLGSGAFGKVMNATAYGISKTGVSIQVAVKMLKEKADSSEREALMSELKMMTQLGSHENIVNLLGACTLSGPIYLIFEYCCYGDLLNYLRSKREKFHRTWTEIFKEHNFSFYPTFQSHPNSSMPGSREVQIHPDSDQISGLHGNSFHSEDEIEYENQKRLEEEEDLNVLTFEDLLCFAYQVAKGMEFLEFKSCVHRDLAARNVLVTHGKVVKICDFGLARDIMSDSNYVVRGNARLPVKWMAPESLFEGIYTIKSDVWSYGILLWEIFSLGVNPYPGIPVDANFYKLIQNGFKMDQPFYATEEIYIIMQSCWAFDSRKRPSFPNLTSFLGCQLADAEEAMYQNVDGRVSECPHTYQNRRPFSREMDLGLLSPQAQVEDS
Outline: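 FLT3 intracellular domain (7.5 ng/ml) and biotin-poly-Glu:Tyr (250 ng/mL), each as added, were preincubated 5 min with compound in Tris pH 7.5 with Mg²⁺, Mn²⁺, DTT and Tween-20. ATP was added (5 μM) for 10 min at 25 °C, then EDTA stop with streptavidin donor/anti-phosphotyrosine acceptor beads for 16 h. % inhibition was calculated against the no-compound control and the no-compound/no-ATP blank.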

T1 sequence (Q02763 770-1124 limits assumed): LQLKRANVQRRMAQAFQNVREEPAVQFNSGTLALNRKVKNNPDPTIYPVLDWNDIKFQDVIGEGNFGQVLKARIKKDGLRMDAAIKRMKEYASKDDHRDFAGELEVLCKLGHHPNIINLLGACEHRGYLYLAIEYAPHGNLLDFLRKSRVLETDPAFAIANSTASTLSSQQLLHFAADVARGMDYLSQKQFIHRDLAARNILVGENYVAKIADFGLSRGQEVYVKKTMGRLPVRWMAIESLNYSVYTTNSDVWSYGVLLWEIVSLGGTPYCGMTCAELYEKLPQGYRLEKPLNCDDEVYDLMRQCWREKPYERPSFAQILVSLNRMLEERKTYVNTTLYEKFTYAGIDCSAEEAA

For `Cc1ccc(C(=O)Nc2ccc(Oc3ccc4nc(NC(=O)C5CC5)cn4c3)cn2)c(=O)n1-c1ccc(F)cc1` [Example 60, N-[5-({2-[(cyclopropylcarbonyl)amino]imidazo[1,2-a]pyridin-6-yl}oxy)pyridin-2-yl]-1-(4-fluorophenyl)-6-methyl-2-oxo-1,2-dihydropyridine-3-carboxamide], the IC50 [1] was ≤ 1000 nM, the IC50 [2] was ≤ 2000 nM and the inhibition at 1 µM [3] was ≥ 90%. The IC50 [3] was ≤ 1000 nM and the IC50 [4] was ≤ 1000 nM.
`Cc1ccc(C(=O)Nc2ccc(Oc3ccc4nc(NC(=O)C5CC5)cn4c3)cn2)[n+]([O-])c1-c1ccc(F)cc1` [Example 61, N-[5-({2-[(cyclopropylcarbonyl)amino]imidazo[1,2-a]pyridin-6-yl}oxy)pyridin-2-yl]-6-(4-fluorophenyl)-5-methylpyridine-2-carboxamide 1-oxide] was tested, and the IC50 [1] was ≤ 1000 nM, the IC50 [2] was ≤ 2000 nM and the inhibition at 1 µM [3] was ≥ 90%. The IC50 [3] was ≤ 1000 nM and the IC50 [4] was ≤ 1000 nM.
For `Cc1cc(C(=O)Nc2ccc(Oc3ccc4nc(NC(=O)C5CC5)cn4c3)c(F)c2)c(=O)n(-c2ccc(F)cc2)c1` [Example 66, N-[4-({2-[(cyclopropylcarbonyl)amino]imidazo[1,2-a]pyridin-6-yl}oxy)-3-fluorophenyl]-1-(4-fluorophenyl)-5-methyl-2-oxo-1,2-dihydropyridine-3-carboxamide], the IC50 [1] was ≤ 1000 nM, the IC50 [2] was ≤ 2000 nM and the inhibition at 1 µM [3] was ≥ 90%. The IC50 [3] was ≤ 1000 nM and the IC50 [4] was ≤ 1000 nM.
For `Cc1cc(C(=O)Nc2ccc(Oc3ccc4nc(NC(=O)C5CC5)cn4c3)c(F)c2)c(=O)n(-c2ccc(F)cc2)c1C` [Example 70, N-[4-({2-[(cyclopropylcarbonyl)amino]imidazo[1,2-a]pyridin-6-yl}oxy)-3-fluorophenyl]-1-(4-fluorophenyl)-5,6-dimethyl-2-oxo-1,2-dihydropyridine-3-carboxamide], the IC50 [1] was ≤ 1000 nM, the IC50 [2] was ≤ 2000 nM and the inhibition at 1 µM [3] was ≥ 90%. The IC50 [3] was ≤ 1000 nM and the IC50 [4] was ≤ 1000 nM.
In the case of `Cc1ccc(C(=O)Nc2ccc(Oc3ccc4nc(NC(=O)C5CC5)cn4c3)cc2)[n+]([O-])c1-c1ccc(F)cc1` [Example 72, N-[4-({2-[(cyclopropylcarbonyl)amino]imidazo[1,2-a]pyridin-6-yl}oxy)phenyl]-6-(4-fluorophenyl)-5-methylpyridine-2-carboxamide 1-oxide], the IC50 [1] is reported as ≤ 1000 nM, the IC50 [2] is reported as ≤ 2000 nM and the inhibition at 1 µM [3] is reported as ≥ 90%. For the same compound, the IC50 [3] was ≤ 1000 nM and the IC50 [4] was ≤ 1000 nM.
`Cc1ccc(C(=O)Nc2ccc(Oc3ccc4nc(NC(=O)C5CC5)cn4c3)c(F)c2)c(=O)n1-c1cccc(F)c1` [Example 75, N-[4-({2-[(cyclopropylcarbonyl)amino]imidazo[1,2-a]pyridin-6-yl}oxy)-3-fluorophenyl]-1-(3-fluorophenyl)-6-methyl-2-oxo-1,2-dihydropyridine-3-carboxamide] was tested, and the IC50 [1] was ≤ 1000 nM, the IC50 [2] was ≤ 2000 nM and the inhibition at 1 µM [3] was ≥ 90%. For the same compound, the IC50 [3] was ≤ 1000 nM and the IC50 [4] was ≤ 1000 nM.
`Cc1ccc(C(=O)Nc2ccc(Oc3ccn4nc(NC(=O)C5CC5)nc4c3)c(F)c2)c(=O)n1-c1ccc(F)cc1` [Example 76, N-[4-({2-[(cyclopropylcarbonyl)amino][1,2,4]triazolo[1,5-a]pyridine-7-yl}oxy)-3-fluorophenyl]-1-(4-fluorophenyl)-6-methyl-2-oxo-1,2-dihydropyridine-3-carboxamide] was tested, and the IC50 [1] was ≤ 1000 nM, the IC50 [2] was ≤ 2000 nM and the inhibition at 1 µM [3] was ≥ 90%. For the same compound, the IC50 [3] was ≤ 1000 nM and the IC50 [4] was ≤ 1000 nM.
In the case of `Cc1c(C(=O)Nc2ccc(Oc3ccc4nc(NC(=O)C5CC5)cn4c3)c(F)c2)c(=O)n(-c2ccc(F)cc2)n1C` [Example 77, N-[4-({2-[(cyclopropylcarbonyl)amino]imidazo[1,2-a]pyridin-6-yl}oxy)-3-fluorophenyl]-2-(4-fluorophenyl)-1,5-dimethyl-3-oxo-2,3-dihydro-1H-pyrazole-4-carboxamide], the IC50 [1] is reported as ≤ 1000 nM, the IC50 [2] is reported as ≤ 2000 nM and the inhibition at 1 µM [3] is reported as ≥ 90%. The IC50 [3] was ≤ 1000 nM and the IC50 [4] was ≤ 1000 nM.
